Data as given in patent publication US20110160223A1, “NMDA Receptor Antagonists for the Treatment of Neuropsychiatric Disorders” (priority 2008, published 2011).
Read-outs that look alike come from different tables or passages of the source.

Columns and labels:
[1] = test system: Salmonella typhimurium TA98, TA102; experiment: Ames test for genotoxicity; conditions: 8 conc., 1.5-5000 μg/plate; +/− S9 both; strains TA98, TA102
Protocol: The Ames test determines the ability of a compound to reverse an introduced mutation in two strains of Salmonella typhimurium (selected from TA98, TA100, TA15345, TA1537, and TA102). (See for example Maron, D. M. and Ames, B. N., Mutat. Res., 1983, 113, 173-215.) Compounds were tested at eight dose levels 1.5, 5, 15, 50, 150, 500, 1500, and 5000 μg/plate in both the presence and absence of S-9 microsomal fraction in two bacterial strains (TA98, TA102). After incubation at 37° the number of revertant colonies was compared with the number of spontaneous revertants on negative (vehicle) plates. Positive control plates containing a known mutagen active in each of the strains in the presence of S-9 extract (2-aminoanthracene at 1-5 ug/plate) were also run.

[2] = biological target: NMDA receptor (NR1 + NR2 subunits) (Rattus norvegicus, UniProt P35439+Q00960); experiment: Two electrode voltage clamp recording from Xenopus laevis oocytes (pH dependence of NMDA antagonism); assay type: cell-based; conditions: Table 27; pH not stated; read-out: Rat IC50
Chain of NMDA receptor (NR1 + NR2 subunits) (Q00960 27-1482, other chains not shown): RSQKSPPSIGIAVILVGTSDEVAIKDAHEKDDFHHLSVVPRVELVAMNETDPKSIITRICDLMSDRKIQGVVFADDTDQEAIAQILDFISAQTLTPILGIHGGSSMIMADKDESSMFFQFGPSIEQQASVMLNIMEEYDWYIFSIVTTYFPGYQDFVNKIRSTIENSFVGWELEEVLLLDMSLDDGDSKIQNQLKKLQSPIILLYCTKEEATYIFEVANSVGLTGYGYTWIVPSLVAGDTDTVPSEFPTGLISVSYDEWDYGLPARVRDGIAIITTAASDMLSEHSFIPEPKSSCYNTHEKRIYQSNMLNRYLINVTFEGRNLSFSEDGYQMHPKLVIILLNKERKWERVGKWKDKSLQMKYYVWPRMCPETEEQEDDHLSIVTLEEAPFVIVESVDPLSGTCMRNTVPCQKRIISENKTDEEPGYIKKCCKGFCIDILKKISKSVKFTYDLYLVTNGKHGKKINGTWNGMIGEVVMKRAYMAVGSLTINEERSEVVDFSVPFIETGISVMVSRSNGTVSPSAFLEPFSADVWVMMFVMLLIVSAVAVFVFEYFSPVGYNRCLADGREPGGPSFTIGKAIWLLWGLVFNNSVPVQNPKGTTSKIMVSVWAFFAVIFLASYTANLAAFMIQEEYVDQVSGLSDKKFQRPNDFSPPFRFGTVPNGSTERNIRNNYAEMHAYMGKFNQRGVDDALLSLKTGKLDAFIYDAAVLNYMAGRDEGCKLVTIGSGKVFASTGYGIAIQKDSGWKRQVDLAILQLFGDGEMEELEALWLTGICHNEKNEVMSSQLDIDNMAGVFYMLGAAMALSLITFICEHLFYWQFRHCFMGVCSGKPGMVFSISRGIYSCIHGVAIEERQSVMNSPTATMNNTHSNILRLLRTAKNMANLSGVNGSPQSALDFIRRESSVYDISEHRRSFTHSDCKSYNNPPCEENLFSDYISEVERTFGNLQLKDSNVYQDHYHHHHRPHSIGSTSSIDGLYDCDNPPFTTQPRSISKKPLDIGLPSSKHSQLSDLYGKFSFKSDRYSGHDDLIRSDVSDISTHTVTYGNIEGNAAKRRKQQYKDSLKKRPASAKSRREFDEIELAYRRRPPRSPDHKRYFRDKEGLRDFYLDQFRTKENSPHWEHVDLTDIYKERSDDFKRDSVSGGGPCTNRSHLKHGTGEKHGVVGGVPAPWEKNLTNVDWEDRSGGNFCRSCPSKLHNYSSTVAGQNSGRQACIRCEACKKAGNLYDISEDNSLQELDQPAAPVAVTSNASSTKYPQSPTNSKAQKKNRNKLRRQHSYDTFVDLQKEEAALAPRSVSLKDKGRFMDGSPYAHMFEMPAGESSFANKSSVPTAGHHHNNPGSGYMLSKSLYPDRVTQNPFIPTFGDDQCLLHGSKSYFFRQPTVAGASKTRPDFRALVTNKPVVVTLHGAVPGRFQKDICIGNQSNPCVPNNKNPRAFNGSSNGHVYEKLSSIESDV
Procedure, shortened: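 Oocytes expressing rat NR1/NR2 were held at −40 mV at 23 °C, 2–7 days after injection, in Ba²⁺ saline with pH adjusted and 10 µM EDTA. Compounds at 4–8 concentrations were co-applied with 50 µM glutamate and 30 µM glycine. Percent of the initial response was leak-corrected, pooled over 3–6 frogs and fitted with a Hill equation (minimum ≥0) to give IC50.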

[3] = Plasma and brain exposure assessment; assay type: in vivo, Mice; conditions: mouse, ip; for concentration at 30 min: calculated from the brain:plasma ratio determined by LC-MS/MS
Protocol: Mice were administered a dose of test compound (10 mg/kg by i.p.) and blood and brain tissue samples collected at the indicated times post drug administration (n=3-5). Blood samples were collected in K-EDTA tubes and centrifuged for ten minutes immediately after collection, and the plasma was stored at −80° C. until analysis. Brains were immediately removed from the skull and the meninges and cerebellum removed, rinsed with ice-cold PBS, weighed and then homogenized at 4° C. in 2-3 volumes of 50 mM potassium phosphate buffer (pH 7.4) and stored at −80° C. until analysis. Plasma and brain homogenates were extracted by the addition of 5 volumes of cold acetonitrile, mixed well by vortexing and centrifuged at 4000 rpm for 15 minutes. The supernatant fractions were analyzed by LC-MS/MS operating in multiple reaction monitoring mode (MRM) and analyzed for the parent compound to determine the plasma or brain concentration. Internal standards were added to calibrate each sample. An eight point standard curve was prepared similarly in naïve plasma and brain for each compound of interest. Based on occupancy studies of other NR2B antagonists in rodents (CP-101,606, Ro25-6981, and Merck20j), plus plasma levels achieved in Preskorn et al., brain exposures for the test compounds were consistent with “anticipated levels” required for efficacy.

[4] = test system: CD1 mice; experiment: Forced swim model (depression result); assay type: in vivo; conditions: i.p.
Protocol: CD1 mice were adminstered a compounds shown in Table 11, desipramine, Ro 25-6981 or a control vehicle and subjected to a forced swim test. All compounds were administered as intraperitoneal injections. Animals were placed into a beaker (15 cm diameter) of water held at 25° C. with a depth of 15 cm 30 min after compound administration. Behavior was videotaped for 6 minutes from the side of the beaker and scored subsequently for struggling behavior. Results were analyzed by one-way ANOVA and post-hoc Bonferroni tests. Total immobility time refers to the time that the animal spends floating or engaged in minimal activity to keep afloat for at least 3 seconds. Subtle movements of feet, tail or head required to maintain the eyes, ears, and nose above the surface of the water were excluded as immobility. The video-tapes were scored by investigators unfamiliar with the treatments of the mice.
For the data in FIG. 1, test compounds were tested at a dose of 10 mg/ kg. Desipramine was tested at a dose of 20 mg/kg. Ro 25-6981 was tested at a dose of 5 mg/kg. Number of CD1 mice tested per groups was 8-10. ANOVA: F(11,98)=3.638, p<0.01. *=p<0.05 compared to vehicle. +=p<0.05 compared to desipramine.
For the data in FIG. 2, compounds NP10075 and NP10076 were tested at doses of 5 mg/kg, 7.5 mg/kg and 10 mg/kg; desipramine was tested at a dose of 20 mg/kg; and Ro 25-6981 was tested at a dose of 5 mg/kg. Number of CD1 mice tested per group was 8-10. *=p<0.05, **=p<0.01 ANOVA, post-hoc Bonferroni from control.

[5] = test system: mice; experiment: Open field activity test; assay type: in vivo; conditions: 10 mg/kg, intraperitoneal
Protocol: Spontaneous activity was evaluated in an automated Omnitech Digiscan apparatus (AccuScan Instruments, Columbus, Ohio). Animals were given vehicle, imipramine, or a dose of a test compound. All compounds were administered as intraperitoneal injections. Activity was summated at 5 minute intervals over the 90 min period of testing. At 60 minutes, the mice were injected with 10 mg/kg NP10075, 10 mg/kg NP10076 or a vehicle. Locomotion was measured in terms of the total distance traveled (horizontal activity). Results were analyzed by one-way ANOVA and post-hoc Bonferroni tests.

[6] = Brain exposure (brain:plasma ratio, Table 24); assay type: in vivo, Rats; conditions: for Kp at 15 min: 15 m; for Kp at 30 min: 30 m
Protocol: Animals were fasted overnight prior to dose administration and food returned to the animals two hours after dosing. Following IV dosing, blood samples (ca 200 μL) were collected into separate tubes containing anticoagulant (K-EDTA) via the orbital plexus at various times post administration. Plasma samples were prepared immediately after collection by centrifugation for ten minutes using a tabletop centrifuge, and stored at −80° C. Brain tissue was weighed, homogenized on ice in 50 mM phosphate buffer (2 ml per brain) and the homogenate stored at −80° C. Plasma and brain homogenate samples were extracted by the addition of 5 volumes of cold acetonitrile, mixed well by vortexing and centrifuged at 4000 rpm for 15 minutes. The supernatant fractions were analyzed by LC-MS/MS operating in multiple reaction monitoring mode (MRM). The amount of parent compound in each sample was calculated by comparing the response of the analyte in the sample to that of a standard curve.

[7] = test system: MDR1-MDCK cell monolayers that express the multidrug transporter P-gp; experiment: In vitro cell permeability assay to predict brain penetration potential; assay type: in vitro ADME; parameters: key: High: when Papp A−B≧3.0×10−6 cm/s, and efflux<3.0; Moderate: when Papp A−B≧3.0×10−6 cm/s, and 10>efflux≧3.0; Low: when either Papp A−B≧3.0×10−6 cm/s, and efflux≧10, or when Papp A−B<3.0×10−6 cm/s; conditions: 5 μM, pH 7.4, 2 hr, from Papp A-B and efflux ratio
Protocol: Penetration Classification (Table 24) using the in vitro cell permeability assay to predict bran penetration potential: Transwell® wells containing MDR1-MDCK cell monolayers that express the multidrug transporter P-gp were used for measuring the percent recovery of compound after dosing both sides of a cell monolayer with the test article. Monolayers were grown for 7-11 days at which time 5 μM of the test article was made by dilution from DMSO stocks into a Hank's balanced salt solution (pH 7.4), final DMSO not greater than 1%, and added to: a) the apical side for A-B permeability (apical to basal) assessment, or separately b) the basal side for the B-A permeability (basal to apical) assessment, all at pH 7.4. After a 2 hr incubation (37° C.) both the apical and the basal compartments were sampled and the amount of test article present determined by generic LC-MS/MS methods against a ≧4 point calibration curve. Experiments were done in duplicate. Apparent permeability (Papp units are reported×10−6 cm/s) are determined for the A−B and the B−A directions as well as the Efflux ratio (PappB−A/Papp A−B). The blood-brain barrier penetration potential is classified as follows: “High” when Papp A−B≧3.0×10−6 cm/s, and efflux<3.0; “Moderate” when Papp A−B≧3.0×10−6 cm/s, and 10>efflux≧3.0; and “Low” when either Papp A−B≧3.0×10−6 cm/s, and efflux≧10, or when Papp A−B<3.0×10−6 cm/s.

[8] = plasma (free, unbound), mice 10 mg/kg i.p., 30 minute, based on % free fraction measured in protein binding study, read-out: Free Plasma
[9] = plasma (free, unbound), mice 10 mg/kg i.p., 30 minute, based on % free fraction, read-out: Free Plasma
[10] = plasma, mice dosed 10 mg/kg, i.p., 30 minute time point, LC-MS/MS, read-out: Plasma
[11] = rat, brain and plasma, ip, 10 mg/kg, 10 MPK i.p., read-out: RATIO: Brain:plasma (Direct)
[12] = rat, brain and plasma, iv, 1 mg/kg i.v., read-out: RATIO: Brain:plasma (Direct)

In the case of `CCCCN(CCc1ccc(Cl)c(Cl)c1)CC(O)COc1ccc(NS(C)(=O)=O)cc1` (centres unmarked) [Compound 93-31], the “Genotoxicity (Ames) Result” value [1] is reported as “No positive”.

In the case of `O=C1N(C[C@H](O)COc2ccc(O)cc2)CCN1c1ccc(Cl)cc1` [NP10076], the IC50 [2] is reported as 72 nM, the concentration at 30 min ([3]; mice 10 mg/kg i.p.) is reported as 64 nM and the concentration at 30 minute [3, 8] is reported as 34 ng/mL. The concentration at 30 minute [3, 9] was 94 nM, the concentration at 30 minute [3, 10] was 377 ng/mL and the “Depression Result” value [4] was “active”.

For `O=C(COc1ccc2[nH]c(=O)oc2c1)N1CCN(c2ccc(Cl)c(Cl)c2)CC1` [NP10068], the IC50 [2] was 60 nM, the concentration at 30 min ([3]; mice 10 mg/kg i.p.) was 48 nM and the concentration at 30 minute [3, 8] was 61 ng/mL. For the same molecule, the concentration at 30 minute [3, 9] was 145 nM, the concentration at 30 minute [3, 10] was 679 ng/mL and the “Depression Result” value [4] was “active”.

In the case of `NC(=O)Nc1ccc(OC[C@@H](O)CN2CCN(c3ccc(Cl)cc3)CC2)cc1` [NP10075], the “mouse open field activity (total distance traveled)” value [5] is reported as “Neither NP10075 or NP10076 altered mouse open field activity”, the IC50 [2] is reported as 108 nM and the concentration at 30 min ([3]; mice 10 mg/kg i.p.) is reported as 130 nM. The concentration at 30 minute [3, 8] was 220 ng/mL, the concentration at 30 minute [3, 9] was 542 nM and the concentration at 30 minute [3, 10] was 3140 ng/mL. For the same molecule, the “Genotoxicity (Ames) Result” value [1] was “No positive” and the “Depression Result” value [4] was “active”.

For `Nc1ccc(OC[C@@H](O)CN2CCN(c3ccc(Cl)c(Cl)c3)C2=O)cc1` [NP10226], the “Genotoxicity (Ames) Result” value [1] was “No positive”.

`O=C(COc1ccc2[nH]c(=O)oc2c1)N1CCN(c2ccc(Cl)c(Cl)c2)CC1` [drawing 806] showed a Kp at 15 min [6, 11] of 0.25, a Kp at 30 min [6, 11] of 0.49 and a Kp at 1 h ([6]; rat, brain and plasma, ip, 10 mg/kg, 10 MPK i.p., 1 hr, read-out: RATIO: Brain:plasma (Direct)) of 0.3. For the same molecule, the Kp at 2 h ([6]; rat, brain and plasma, ip, 10 mg/kg, 10 MPK i.p., 2 hr, read-out: RATIO: Brain:plasma (Direct)) was 0.36, the Kp ([6]; rat, brain and plasma, ip, 10 mg/kg, 10 MPK i.p., avg, read-out: RATIO: Brain:plasma (Direct)) was 0.33 and the “BBB Pene Classification” value [7] was “Moderate (when Papp A−B≧3.0×10−6 cm/s, and 10>efflux≧3.0)”.

For `O=C(COc1ccc2[nH]c(=O)[nH]c2c1)N1CCN(c2ccc(Cl)c(Cl)c2)CC1` [drawing 807], the Kp at 15 min [6, 12] was 0.04, the Kp at 30 min [6, 12] was 0.06 and the Kp at 1 h ([6]; rat, brain and plasma, iv, 1 mg/kg i.v., 1 hr, read-out: RATIO: Brain:plasma (Direct)) was 0.07. The Kp at 3 h ([6]; rat, brain and plasma, iv, 1 mg/kg i.v., 3 hr, read-out: RATIO: Brain:plasma (Direct)) was 0.1, the Kp ([6]; rat, brain and plasma, iv, 1 mg/kg i.v., avg., read-out: RATIO: Brain:plasma (Direct)) was 0.07 and the “BBB Pene Classification” value [7] was “Moderate (when Papp A−B≧3.0×10−6 cm/s, and 10>efflux≧3.0)”.

Work on `NC(=O)Nc1ccc(OC[C@@H](O)CN2CCN(c3ccc(Cl)cc3)CC2)cc1` [drawing 803] yielded a Kp at 30 min ([6]; rat, brain and plasma, iv, 1 mg/kg, 1MPK i.v., read-out: RATIO: Brain:plasma (Direct)) of 0.24, a Kp at 6 h ([6]; rat, brain and plasma, iv, 3 mg/kg, 3 MPK i.v., 6 hr, read-out: RATIO: Brain:plasma (Direct)) of 0.49 and a Kp at 1 hr ([6]; rat, brain and plasma, iv, 3 MPK i.v. @ 6 hr, 1MPK @ 0.5 hr and 2 hr, 1 hr, read-out: RATIO: Brain:plasma (Direct)) of 0.53. For the same molecule, the Kp ([6]; rat, brain and plasma, iv, 3 MPK i.v. @ 6 hr, 1MPK @ 0.5 hr and 2 hr, avg, read-out: RATIO: Brain:plasma (Direct)) was 0.42 and the “BBB Pene Classification” value [7] was “Low”.

In the case of `Nc1ccc(OC[C@@H](O)CN2CCN(c3ccc(Cl)cc3)CC2)cc1` [NP10231], the “Genotoxicity (Ames) Result” value [1] is reported as “No positive”.

For `Oc1ccc(OC[C@@H](O)CSc2nc3cc(Cl)c(Cl)cc3[nH]2)cc1` [drawing 808], the “RATIO: Brain:plasma (Direct)” value ([6]; 3 MPK i.v., 2 hr) was “BLQ”, the Kp at 30 min ([6]; rat, brain and plasma, iv, 3 mg/kg, 3 MPK i.v., read-out: RATIO: Brain:plasma (Direct)) was 0.15 and the Kp at 1 h ([6]; rat, brain and plasma, iv, 3 mg/kg, 3 MPK i.v., 1 hr, read-out: RATIO: Brain:plasma (Direct)) was 0.35. The Kp ([6]; rat, brain and plasma, iv, 3 mg/kg, 3 MPK i.v., avg, read-out: RATIO: Brain:plasma (Direct)) was 0.25 and the “BBB Pene Classification” value [7] was “High (when Papp A−B≧3.0×10−6 cm/s, and efflux<3.0)”.

With `O=c1[nH]c2ccc(OC[C@@H](O)CN3CCN(c4ccc(Cl)cc4)CC3)cc2o1` [NP10056] the “Genotoxicity (Ames) Result” value [1] was “No positive”.

In the case of `O=c1[nH]c2ccc(OC[C@@H](O)CN3CCN(c4ccc(Cl)cc4)CC3)cc2[nH]1` [NP10122], the “Genotoxicity (Ames) Result” value [1] is reported as “No positive”.
